Laboratory results published in PubChem BioAssay (NCI).
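Test compounds were applied to cells in 96-well plates for 48 hours at 5 doses. Here, GI50 denotes the concentration required for 50% inhibition of growth. TGI denotes the concentration required for complete inhibition of growth.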

Tests used:
Test in all cases: NCI-60 cell line screen, 48 h; in the data active = GI50 below about 0.43 µM; inactive = the rest
786-0 renal = tested on: 786-0 renal
MCF7 breast = tested on: MCF7 breast
M14 melanoma = tested on: M14 melanoma
SK-MEL-2 melanoma = tested on: SK-MEL-2 melanoma
MOLT-4 leukemia = tested on: MOLT-4 leukemia
A549 NSCLC = tested on: A549 NSCLC
ACHN renal = tested on: ACHN renal
HCC-2998 colon = tested on: HCC-2998 colon
NCI-H23 lung = tested on: NCI-H23 lung
TK-10 renal = tested on: TK-10 renal
OVCAR-5 ovarian = tested on: OVCAR-5 ovarian
LOX IMVI melanoma = tested on: LOX IMVI melanoma
HT29 colon = tested on: HT29 colon
COLO 205 colon = tested on: COLO 205 colon
HOP-92 NSCLC = tested on: HOP-92 NSCLC
HL-60(TB) leukemia = tested on: HL-60(TB) leukemia
U251 CNS = tested on: U251 CNS
NCI-H522 lung = tested on: NCI-H522 lung
SNB-19 CNS = tested on: SNB-19 CNS
OVCAR-3 ovarian = tested on: OVCAR-3 ovarian
CAKI-1 renal = tested on: CAKI-1 renal
BT-549 breast = tested on: BT-549 breast
CCRF-CEM leukemia = tested on: CCRF-CEM leukemia
K-562 leukemia = tested on: K-562 leukemia
NCI-H460 lung = tested on: NCI-H460 lung
SK-MEL-28 melanoma = tested on: SK-MEL-28 melanoma
SNB-75 CNS = tested on: SNB-75 CNS
UACC-62 melanoma = tested on: UACC-62 melanoma
T-47D breast = tested on: T-47D breast
UO-31 renal = tested on: UO-31 renal
HS 578T breast = tested on: HS 578T breast
HOP-62 NSCLC = tested on: HOP-62 NSCLC
NCI-H226 lung = tested on: NCI-H226 lung
A498 renal = tested on: A498 renal
HCT-15 colon = tested on: HCT-15 colon
EKVX NSCLC = tested on: EKVX NSCLC
SN12C renal = tested on: SN12C renal
SW-620 colon = tested on: SW-620 colon
MALME-3M melanoma = tested on: MALME-3M melanoma
SF-268 CNS = tested on: SF-268 CNS
NCI/ADR-RES ovarian = tested on: NCI/ADR-RES ovarian
MDA-MB-231 breast = tested on: MDA-MB-231 breast
IGROV1 ovarian = tested on: IGROV1 ovarian
SK-MEL-5 melanoma = tested on: SK-MEL-5 melanoma
RXF 393 renal = tested on: RXF 393 renal
UACC-257 melanoma = tested on: UACC-257 melanoma
PC-3 prostate = tested on: PC-3 prostate
DU-145 prostate = tested on: DU-145 prostate
SF-539 CNS = tested on: SF-539 CNS
KM12 colon = tested on: KM12 colon
RPMI-8226 leukemia = tested on: RPMI-8226 leukemia
OVCAR-4 ovarian = tested on: OVCAR-4 ovarian
SF-295 CNS = tested on: SF-295 CNS
SK-OV-3 ovarian = tested on: SK-OV-3 ovarian
HCT-116 colon = tested on: HCT-116 colon
MDA-MB-435 = tested on: MDA-MB-435
OVCAR-8 ovarian = tested on: OVCAR-8 ovarian

CC(=O)/C(=C\c1c(-c2ccccc2)[nH]c2ccccc12)S(C)(=O)=O
> 63 µM: TGI (U251 CNS)
19.2 µM: TGI (KM12 colon)
inactive: GI50 (786-0 renal) 3.44 µM | GI50 (MCF7 breast) 2.66 µM | GI50 (M14 melanoma) 1.64 µM | GI50 (SK-MEL-2 melanoma) 5.19 µM | GI50 (MOLT-4 leukemia) 4.24 µM | GI50 (A549 NSCLC) 7.14 µM | GI50 (ACHN renal) 5.64 µM | GI50 (HCC-2998 colon) 6.61 µM | GI50 (NCI-H23 lung) 4 µM | GI50 (TK-10 renal) 8.21 µM | GI50 (OVCAR-5 ovarian) 13.9 µM | GI50 (LOX IMVI melanoma) 3.36 µM | GI50 (HT29 colon) 1.6 µM | GI50 (COLO 205 colon) 2.7 µM | GI50 (HOP-92 NSCLC) 3.11 µM | GI50 (HL-60(TB) leukemia) 3.51 µM | GI50 (U251 CNS) 2.79 µM | GI50 (NCI-H522 lung) 3.27 µM | GI50 (SNB-19 CNS) 3.3 µM | GI50 (OVCAR-3 ovarian) 2.33 µM | GI50 (CAKI-1 renal) 5.62 µM | GI50 (BT-549 breast) 2.77 µM | GI50 (CCRF-CEM leukemia) 4.74 µM | GI50 (K-562 leukemia) 0.671 µM | GI50 (NCI-H460 lung) 2.78 µM | GI50 (SK-MEL-28 melanoma) 3.34 µM | GI50 (SNB-75 CNS) 1.45 µM | GI50 (UACC-62 melanoma) 3.17 µM | GI50 (T-47D breast) 2.58 µM | GI50 (UO-31 renal) 5.3 µM | GI50 (HS 578T breast) 1.55 µM | GI50 (HOP-62 NSCLC) 7.95 µM | GI50 (NCI-H226 lung) 13 µM | GI50 (A498 renal) 3.88 µM | GI50 (HCT-15 colon) 1.93 µM | GI50 (EKVX NSCLC) 6.34 µM | GI50 (SN12C renal) 6.06 µM | GI50 (SW-620 colon) 2.08 µM | GI50 (MALME-3M melanoma) 4.72 µM | GI50 (SF-268 CNS) 4.14 µM | GI50 (NCI/ADR-RES ovarian) 1.8 µM | GI50 (MDA-MB-231 breast) 4.82 µM | GI50 (IGROV1 ovarian) 6.88 µM | GI50 (SK-MEL-5 melanoma) 1.87 µM | GI50 (RXF 393 renal) 2.56 µM | GI50 (UACC-257 melanoma) 24.1 µM | GI50 (PC-3 prostate) 4.46 µM | GI50 (DU-145 prostate) 3.47 µM | GI50 (SF-539 CNS) 1.89 µM | GI50 (KM12 colon) 2.42 µM | GI50 (RPMI-8226 leukemia) 2.95 µM | GI50 (OVCAR-4 ovarian) 3.71 µM | GI50 (SF-295 CNS) 3.85 µM | GI50 (SK-OV-3 ovarian) 3.96 µM | GI50 (HCT-116 colon) 2.86 µM | GI50 (OVCAR-8 ovarian) 5.09 µM
> 43 µM: TGI (SK-MEL-5 melanoma)
10.7 µM: TGI (NCI-H460 lung)
26 µM: TGI (T-47D breast)
> 66.3 µM: TGI (LOX IMVI melanoma)
> 54.9 µM: TGI (IGROV1 ovarian)
5.2 µM: TGI (SNB-75 CNS)
5.35 µM: TGI (OVCAR-3 ovarian)
> 40.1 µM: TGI (HT29 colon)
15.5 µM: TGI (DU-145 prostate)
1.97 µM: TGI (MDA-MB-435)
33.9 µM: TGI (HCC-2998 colon)
> 61.4 µM: TGI (SF-295 CNS)
13.5 µM: TGI (COLO 205 colon)
> 32.5 µM: TGI (SK-OV-3 ovarian)
> 100 µM: TGI (MCF7 breast) | TGI (MOLT-4 leukemia) | TGI (A549 NSCLC) | TGI (ACHN renal) | TGI (NCI-H23 lung) | TGI (TK-10 renal) | TGI (OVCAR-5 ovarian) | TGI (CAKI-1 renal) | TGI (BT-549 breast) | TGI (CCRF-CEM leukemia) | TGI (K-562 leukemia) | TGI (SK-MEL-28 melanoma) | TGI (UACC-62 melanoma) | TGI (UO-31 renal) | TGI (NCI-H226 lung) | TGI (HCT-15 colon) | TGI (EKVX NSCLC) | TGI (SN12C renal) | TGI (SW-620 colon) | TGI (MALME-3M melanoma) | TGI (UACC-257 melanoma) | TGI (PC-3 prostate) | TGI (OVCAR-4 ovarian) | TGI (HCT-116 colon) | TGI (OVCAR-8 ovarian)
> 24.2 µM: TGI (SK-MEL-2 melanoma)
8.54 µM: TGI (RXF 393 renal)
> 73.9 µM: TGI (MDA-MB-231 breast)
4.66 µM: TGI (SF-539 CNS)
active: GI50 (MDA-MB-435) 0.313 µM
> 75 µM: TGI (HOP-92 NSCLC)
> 93.9 µM: TGI (SF-268 CNS)
> 58.7 µM: TGI (SNB-19 CNS)
21.9 µM: TGI (RPMI-8226 leukemia)
5.58 µM: TGI (M14 melanoma)
> 35.8 µM: TGI (786-0 renal)
4.88 µM: TGI (HS 578T breast)
8.97 µM: TGI (NCI/ADR-RES ovarian)
20.9 µM: TGI (HL-60(TB) leukemia)
> 43.5 µM: TGI (HOP-62 NSCLC)
> 25.7 µM: TGI (NCI-H522 lung)
> 54.8 µM: TGI (A498 renal)
